PubChem BioAssay AID330 (DTP/NCI, 2004)
“And” between values parts separate entries of the source, which are not always exact repeats. Identical values can stand only once. Inconclusive results and toxic doses are left out. The calls were made as follows: active = survival T/C of 150% or more; inactive = T/C below 125% in these data.

Test system: P388 leukemia ip, CD2F1 mice, survival T/C
Assay: NCI In Vivo Anticancer Drug Screen. Data for tumor model P388 Leukemia (intraperitoneal) in CD2F1 (CDF1) mice
Conditions: endpoint: median survival time, higher = longer survival
Procedure, shortened: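 Mice carrying the transplanted tumor received test compound or vehicle. Survival was recorded in each group, and the value is the treated-group measurement divided by that of the vehicle-treated control group.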

[1] = dose: 25.0 mg/kg/injection, schedule: Q01DX009 (ip), vehicle: other
[2] = dose: 50.0 mg/kg/injection, schedule: Q01DX009 (ip), vehicle: other
[3] = dose: 100.0 mg/kg/injection, schedule: Q01DX009 (ip), vehicle: other
[4] = dose: 200.0 mg/kg/injection, schedule: Q01DX009 (ip), vehicle: other
[5] = dose: 400.0 mg/kg/injection, schedule: Q01DX009 (ip), vehicle: other
[6] = dose: 12.5 mg/kg/injection, schedule: Q01DX009 (ip), vehicle: Klucel (hydroxypropylcellulose) (HPC)
[7] = dose: 25.0 mg/kg/injection, schedule: Q01DX009 (ip), vehicle: Klucel (hydroxypropylcellulose) (HPC)
[8] = dose: 50.0 mg/kg/injection, schedule: Q01DX009 (ip), vehicle: Klucel (hydroxypropylcellulose) (HPC)
[9] = dose: 100.0 mg/kg/injection, schedule: Q01DX009 (ip), vehicle: Klucel (hydroxypropylcellulose) (HPC)
[10] = dose: 50.0 mg/kg/injection, schedule: Q01DX005 (ip), vehicle: saline with Tween-80
[11] = dose: 50.0 mg/kg/injection, schedule: Q01DX009 (ip), vehicle: saline with Tween-80
[12] = dose: 100.0 mg/kg/injection, schedule: Q01DX009 (ip), vehicle: saline with Tween-80
[13] = dose: 200.0 mg/kg/injection, schedule: Q01DX009 (ip), vehicle: saline with Tween-80
[14] = dose: 100.0 mg/kg/injection, schedule: Q04DX003 (ip), vehicle: saline with Tween-80
[15] = dose: 200.0 mg/kg/injection, schedule: Q04DX003 (ip), vehicle: saline with Tween-80
[16] = dose: 400.0 mg/kg/injection, schedule: Q04DX003 (ip), vehicle: saline with Tween-80
[17] = dose: 200.0 mg/kg/injection, schedule: Q01DX009 (ip), vehicle: Klucel (hydroxypropylcellulose) (HPC)
[18] = dose: 60.0 mg/kg/injection, schedule: Q01DX005 (ip), vehicle: saline with Tween-80
[19] = dose: 240.0 mg/kg/injection, schedule: Q01DX005 (ip), vehicle: saline with Tween-80
[20] = dose: 100.0 mg/kg/injection, schedule: Q04DX002 (ip), vehicle: saline with Tween-80
[21] = dose: 200.0 mg/kg/injection, schedule: Q04DX002 (ip), vehicle: saline with Tween-80
[22] = dose: 400.0 mg/kg/injection, schedule: Q04DX002 (ip), vehicle: saline with Tween-80

Measured: T/C

O=C(Oc1ccc(NC(=O)c2cc3c(cc2Br)OCO3)cc1)c1ccccc1
inactive: [1] 104 % of control | [2] 103 % of control | [3] 89 % of control | [4] 97 % of control | [5] 95 % of control

CCN(CCO)CCc1cccc2ccccc12
inactive: dose: 50.0 mg/kg/injection, schedule: Q01DX005 (ip), vehicle: Klucel (hydroxypropylcellulose) (HPC) 104 % of control | dose: 100.0 mg/kg/injection, schedule: Q01DX005 (ip), vehicle: Klucel (hydroxypropylcellulose) (HPC) 99 % of control

O=C(CCl)Nc1ccccc1S(=O)(=O)F
inactive: [6] 100 % of control | [7] 107 % of control | [8] 96 % of control | [9] 107 % of control

CC(C)c1nc2ccc(Cl)cc2[nH]1
inactive: [10] 105 % of control | dose: 100.0 mg/kg/injection, schedule: Q01DX005 (ip), vehicle: saline with Tween-80 100 % of control

O=C1CCC(N2C(=O)CC3(CCCC3)C2=O)C(=O)N1c1ccc([N+](=O)[O-])cc1 (stereo not drawn)
inactive: [11] 106 % of control | [12] 109 % of control | [13] 99 % of control

CCn1c(=O)c2ncnnc2n(CC)c1=O
inactive: dose: 6.25 mg/kg/injection, schedule: Q01DX009 (ip), vehicle: Klucel (hydroxypropylcellulose) (HPC) 104 % of control | [6] 111 % of control

Nc1ccc(/C=C\c2nccc3ccccc23)cc1
inactive: dose: 3.13 mg/kg/injection, schedule: Q01DX009 (ip), vehicle: saline with Tween-80 102 % of control

CN(C)c1nc(N/N=C\C(O)C(O)C(O)C(O)CO)nc(N(C)C)n1 (stereo not drawn)
inactive: [14] 112 % of control | [15] 103 % of control | [16] 102 % of control

Clc1ccc(-c2nnc(Nc3ccnc4cc(Cl)ccc34)s2)cc1
inactive: dose: 12.5 mg/kg/injection, schedule: Q01DX005 (ip), vehicle: saline with Tween-80 96 % of control | dose: 25.0 mg/kg/injection, schedule: Q01DX005 (ip), vehicle: saline with Tween-80 96 % of control | [10] 99 % of control and 102 % of control

Cc1cc(C)cc(N=Cc2ccc(C=Nc3cc(C)cc(C)c3)cc2)c1
inactive: [8] 92 % of control | [9] 95 % of control | [17] 100 % of control

CCCCCCCCCCCCCCCCSc1ccc(N=Cc2ccc(N(CC)CC#N)cc2)cc1
inactive: [11] 97 % of control | [12] 94 % of control

CCN1CC2C3CCC(C)(O3)C2C1 (stereo not drawn)
inactive: dose: 50.0 mg/kg/injection, schedule: Q01DX005 (ip), vehicle: saline 99 % of control | dose: 100.0 mg/kg/injection, schedule: Q01DX005 (ip), vehicle: saline 98 % of control | dose: 200.0 mg/kg/injection, schedule: Q01DX005 (ip), vehicle: saline 101 % of control

Cc1cc2c(=O)cc(-c3ccccc3)oc2c(C(N)=O)c1C
inactive: [18] 99 % of control | dose: 120.0 mg/kg/injection, schedule: Q01DX005 (ip), vehicle: saline with Tween-80 98 % of control | [19] 93 % of control

Cc1cc(C)c2nccc(/C=C/c3ccc(N(C)C)cc3)c2c1
inactive: [11] 110 % of control | [12] 108 % of control | [13] 116 % of control | dose: 400.0 mg/kg/injection, schedule: Q01DX009 (ip), vehicle: saline with Tween-80 91 % of control

Cc1csc2ncnc(N)c12
inactive: dose: 50.0 mg/kg/injection, schedule: Q04DX003 (ip), vehicle: Klucel (hydroxypropylcellulose) (HPC) 106 % of control | dose: 100.0 mg/kg/injection, schedule: Q04DX003 (ip), vehicle: Klucel (hydroxypropylcellulose) (HPC) 115 % of control | dose: 200.0 mg/kg/injection, schedule: Q04DX003 (ip), vehicle: Klucel (hydroxypropylcellulose) (HPC) 108 % of control

Cn1c(=O)[nH]c(=O)c2nc(-c3ccccc3)c(-c3ccccc3)nc21
inactive: dose: 100.0 mg/kg/injection, schedule: Q01DX001 (ip), vehicle: Klucel (hydroxypropylcellulose) (HPC) 96 % of control | dose: 200.0 mg/kg/injection, schedule: Q01DX001 (ip), vehicle: Klucel (hydroxypropylcellulose) (HPC) 99 % of control | dose: 400.0 mg/kg/injection, schedule: Q01DX001 (ip), vehicle: Klucel (hydroxypropylcellulose) (HPC) 96 % of control

Cc1cc(C2c3ccccc3-c3ccccc32)cc(C)c1O
inactive: dose: 1.87 mg/kg/injection, schedule: Q01DX005 (ip), vehicle: saline with Tween-80 90 % of control | dose: 3.75 mg/kg/injection, schedule: Q01DX005 (ip), vehicle: saline with Tween-80 97 % of control | dose: 7.5 mg/kg/injection, schedule: Q01DX005 (ip), vehicle: saline with Tween-80 91 % of control | dose: 15.0 mg/kg/injection, schedule: Q01DX005 (ip), vehicle: saline with Tween-80 91 % of control | [18] 90 % of control | [19] 92 % of control

COC(=O)/C=C(/C(=O)OC)N(C)Cc1ccccc1
inactive: [7] 97 % of control | [8] 104 % of control | [9] 98 % of control | [14] 99 % of control | [17] 101 % of control | [15] 99 % of control | [16] 101 % of control

O=C1NN2CCCN=C2c2cccnc21
inactive: [20] 101 % of control | [21] 98 % of control | [22] 101 % of control

O=C(O)c1ccnc(C(=O)O)c1
inactive: dose: 100.0 mg/kg/injection, schedule: Q01DX001 (ip), vehicle: saline with Tween-80 100 % of control | dose: 200.0 mg/kg/injection, schedule: Q01DX001 (ip), vehicle: saline with Tween-80 90 % of control

COC1OC2COC(c3ccccc3)OC2C2OC(c3ccccc3)OC12 (stereo not drawn)
inactive: dose: 1.56 mg/kg/injection, schedule: Q01DX009 (ip), vehicle: other 116 % of control | dose: 3.13 mg/kg/injection, schedule: Q01DX009 (ip), vehicle: other 106 % of control | dose: 6.25 mg/kg/injection, schedule: Q01DX009 (ip), vehicle: other 119 % of control | dose: 12.5 mg/kg/injection, schedule: Q01DX009 (ip), vehicle: other 113 % of control | [1] 113 % of control and 87 % of control | [2] 91 % of control | [3] 91 % of control | [4] 89 % of control | [5] 92 % of control

CCC1(O)CC(O)c2c(O)c3c(c(O)c2C1C(=O)OC)C(=O)c1cccc(O)c1C3=O (stereo not drawn)
inactive: dose: 60.0 mg/kg/injection, schedule: Q01DX005 (ip), vehicle: Klucel (hydroxypropylcellulose) (HPC) 96 % of control | dose: 120.0 mg/kg/injection, schedule: Q01DX005 (ip), vehicle: Klucel (hydroxypropylcellulose) (HPC) 94 % of control | dose: 240.0 mg/kg/injection, schedule: Q01DX005 (ip), vehicle: Klucel (hydroxypropylcellulose) (HPC) 105 % of control

COc1cc2cnccc2cc1O
inactive: dose: 6.25 mg/kg/injection, schedule: Q01DX009 (ip), vehicle: water 92 % of control | dose: 12.5 mg/kg/injection, schedule: Q01DX009 (ip), vehicle: water 103 % of control | dose: 25.0 mg/kg/injection, schedule: Q01DX009 (ip), vehicle: water 98 % of control | dose: 50.0 mg/kg/injection, schedule: Q01DX009 (ip), vehicle: water 95 % of control | dose: 100.0 mg/kg/injection, schedule: Q01DX009 (ip), vehicle: water 110 % of control

O=C1CS(=O)(=O)C(c2cccs2)N1CCN1C(=O)CS(=O)(=O)C1c1cccs1 (stereo not drawn)
inactive: [20] 97 % of control and 94 % of control | [21] 94 % of control and 93 % of control | [22] 92 % of control and 90 % of control

CCn1c2nc(=O)[nH]c(=O)c-2cc2ccccc21
inactive: dose: 45.0 mg/kg/injection, schedule: Q01DX009 (ip), vehicle: saline with Tween-80 113 % of control | dose: 90.0 mg/kg/injection, schedule: Q01DX009 (ip), vehicle: saline with Tween-80 103 % of control | dose: 180.0 mg/kg/injection, schedule: Q01DX009 (ip), vehicle: saline with Tween-80 101 % of control

CCCN1CCc2cccc3c2C1Cc1ccc(O)c(O)c1-3 (stereo not drawn)
inactive: [11] 121 % of control | dose: 50.0 mg/kg/injection, schedule: Q01DX009 (ip), vehicle: saline 113 % of control | [13] 109 % of control

Cc1ccc(NC(=O)NNC(=O)CNC(=O)Nc2n[nH]c(=S)s2)c(C)c1
inactive: [11] 92 % of control | [12] 86 % of control | [13] 91 % of control
